For 53 compounds, IC50 results are on record in patent US12384753B2, “17-beta-hydroxysteroid dehydrogenase type 13 inhibitors and methods of use thereof” (Enanta Pharmaceuticals, Inc., priority 2021, dated 2025).

The target in this assay is Recombinant human HSD17B13 (Homo sapiens (Human), UniProt Q7Z5P4). Description: HSD17B13 rapid-fire mass spectrometry assay (RF/MS assay). In kind it is biochemical. The conditions noted are these: inhibition of HSD17B13; LTB4 10 μM, NAD+ 0.5 mM, RT 3 h; IC50 ranges A-E. The source says:
HSD17B13 rapid-fire mass spectrometry assay (RF/MS assay). Recombinant human HSD17B13 was expressed and purified from sf9 cells at Charles River Labs (Saffron Walden, UK). Leukotriene B4 (Catalog #71160-24-2) and 12-oxoleukotriene B4 (Catalog #20140) were purchased from Cayman Chemicals (Ann Arbor, Michigan.). NAD+ (Catalog #N8285), BSA (Catalog #A7030), DMSO (Catalog #D2650), and Tween-20 (Catalog #11332465001) were purchased from Sigma (St. Louis, MO). Formic acid (Catalog #28905) was from ThermoFisher Scientific and 384 deep well PP microplates (Catalog #784261) were from Greiner Bio-One. In a typical IC50 assay performed in a 384w PP microplate, test compounds (0-100 μM) were incubated with HSD17B13 (80 nM), LTB4 (10 μM), and NAD^+ (0.5 mM) in 10 μL assay buffer (20 mM Tris (pH 7.5), BSA (0.005%), and Tween-20 (0.01%)) at RT for 3 h. The assays were quenched by adding 20 μL of 0.15% aqueous formic acid and the plates were frozen at −80° C. RF/MS analysis was performed at PureHoney Technologies (Billerica, MA) on a RapidFire RF300 system (Agilent Technologies, Inc.) coupled to an API 4000 triple quadrupole mass spectrometer (Sciex) equipped with Agilent RapidFire cartridge type A (C4). The mobile phase was 0.09% formic acid and 0.01% trifluoracetic acid in water (Buffer A) and 0.09% formic acid and 0.01% trifluoracetic acid in 80% aqueous acetonitrile (Buffer B). The RapidFire method conditions were the following: 250 ms aspirate, 3000 ms load/desalt, 4000 ms elute, and 500 ms re-equilibrate. RF-MS/MS was performed in negative polarity (−4500 V), the source temperature was 650° C., and gas 1 and gas 2 settings for nitrogen were set to 50. The curtain gas and collision gas were also nitrogen and were set to 20 and 12, respectively. Leukotriene B4 (335.3) and 12-oxoLeukotriene B4 (333.3) SRM transitions were optimized with Discovery Quant software and extracted ion counts for these analytes were determined.
Data Analysis. HSD17B13 enzyme activity was measured as percent conversion of extracted ion counts and normalized to high and low controls to determine percent residual activity at various concentrations of test compounds. Data were fitted to normalized activity (variable slope) versus concentration fit in GraphPad Prism 7 to determine IC50. All experiments were run in duplicates.
By using above method, the inhibition of HSD17B13 was evaluated for the compounds of Formula (I). IC50 ranges are as follows: A=IC50<0.100 μM; B=0.100 μM<IC50<0.500 μM; C=0.500 μM<IC50<1 μM; D=1 μM<IC50<100 μM; E=IC50>100 μM

Chain of Recombinant human HSD17B13 (Q7Z5P4 20-300): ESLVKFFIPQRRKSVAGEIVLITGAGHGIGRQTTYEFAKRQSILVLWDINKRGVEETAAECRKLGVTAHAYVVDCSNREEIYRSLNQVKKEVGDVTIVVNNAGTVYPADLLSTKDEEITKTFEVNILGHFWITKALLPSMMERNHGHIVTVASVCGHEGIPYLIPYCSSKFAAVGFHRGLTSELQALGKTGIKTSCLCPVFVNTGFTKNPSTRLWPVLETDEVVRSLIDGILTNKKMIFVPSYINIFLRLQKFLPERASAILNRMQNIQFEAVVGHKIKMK

As for `COc1cc(C(=O)O)ccc1NS(=O)(=O)c1csc(C2CCC(c3ccccc3)CC2)n1` (single isomer, unassigned) [Example 369], the IC50 was 100 to 500 nM.

In the case of `CCOc1cc(C(=O)O)ccc1NS(=O)(=O)c1cnc(-c2ccc(F)cc2)s1` [Example 1], the IC50 lay in the range of 500 to 1000 nM.

With `O=C(O)c1ccc(NS(=O)(=O)c2ccc(F)cc2)cc1` [Example 3], the IC50 was 1000 to 100000 nM.

`O=C(O)c1ccc(NS(=O)(=O)c2ccc3ccccc3c2)cc1` [Example 4]: the concentration for half-maximal inhibition (IC50) was in the range of 1000 to 100000 nM.

As for `COc1cc2c(cc1C(=O)O)CN(S(=O)(=O)c1ccc(F)cc1)CC2` [Example 5, 2-((4-fluorophenyl)sulfonyl)-6-methoxy-1,2,3,4-tetrahydroisoquinoline-7-carboxylic acid], the IC50 is above 100000 nM.

Turning to `O=C(O)c1cc2c(cc1F)CCN(S(=O)(=O)c1ccc(F)cc1)C2` [Example 6, 6-fluoro-2-((4-fluorophenyl)sulfonyl)-1,2,3,4-tetrahydroisoquinoline-7-carboxylic acid], the half-maximal inhibitory concentration (IC50) fell in the range of 1000 to 100000 nM.

For `O=C(O)c1ccc2c(c1)CCCN2S(=O)(=O)c1ccc(F)cc1` [Example 7], the IC50 was 1000 to 100000 nM.

Regarding `COc1nc2c(cc1C(=O)O)CN(S(=O)(=O)c1ccc(F)cc1)CC2` [Example 8, 6-((4-fluorophenyl)sulfonyl)-2-methoxy-5,6,7,8-tetrahydro-1,6-naphthyridine-3-carboxylic acid], the concentration for half-maximal inhibition (IC50) is above 100000 nM.

For `O=C(O)c1cc2c(cc1F)OCCN2S(=O)(=O)c1ccc(F)cc1` [Example 9, 7-fluoro-4-((4-fluorophenyl)sulfonyl)-3,4-dihydro-2H-benzo[b][1,4]oxazine-6-carboxylic acid], the 50% inhibitory concentration (IC50) lay within 1000 to 100000 nM.

On to `O=C(O)c1ccc2c(c1)N(S(=O)(=O)c1ccc(F)cc1)CC2` [Example 10], for which the IC50 is 1000 to 100000 nM.

For the compound `O=C(O)c1ccc2c(c1)CN(S(=O)(=O)c1ccc(F)cc1)C2` [Example 11], the IC50 was above 100000 nM.

`O=C(O)c1ccc2c(c1)CCN2S(=O)(=O)c1ccc(F)cc1` [Example 12]: the 50% inhibitory concentration (IC50) is above 100000 nM.

Regarding `O=C(O)c1ccc2c(c1)CCN2S(=O)(=O)c1ccccc1` [Example 13], the IC50 was 1000 to 100000 nM.

As to `O=C(O)c1cc2c(cc1F)N(S(=O)(=O)c1ccc(F)cc1)CCC2` [Example 14, 7-fluoro-1-((4-fluorophenyl)sulfonyl)-1,2,3,4-tetrahydroquinoline-6-carboxylic acid], the IC50 was 1000 to 100000 nM.

On to `O=C(O)c1ccc(NS(=O)(=O)c2csc(-c3ccccc3)n2)cc1` [Example 15], for which the concentration for half-maximal inhibition (IC50) was 500 to 1000 nM.

For `O=C(O)c1ccccc1NS(=O)(=O)c1cnc(-c2ccc(F)cc2)s1` [Example 16], the half-maximal inhibitory concentration (IC50) was 1000 to 100000 nM.

Take `O=C(O)c1cccc(NS(=O)(=O)c2cnc(-c3ccc(F)cc3)s2)c1` [Example 17]: the half-maximal inhibitory concentration (IC50) was above 100000 nM.

In the case of `COC(=O)c1ccc(NS(=O)(=O)c2cnc(-c3ccc(F)cc3)s2)cc1C` [Example 18], the IC50 lay within 1000 to 100000 nM.

Consider `Cc1cc(NS(=O)(=O)c2cnc(-c3ccc(F)cc3)s2)ccc1C(=O)O` [Example 19], for which the concentration for half-maximal inhibition (IC50) lay within 500 to 1000 nM.

With `Cc1cc(C(=O)O)ccc1NS(=O)(=O)c1cnc(-c2ccc(F)cc2)s1` [Example 20], the IC50 fell in the range of 1000 to 100000 nM.

Turning to `O=C(O)c1ccc(NS(=O)(=O)c2cnc(-c3ccc(F)cc3)s2)cc1F` [Example 21], the IC50 was 500 to 1000 nM.

As to `COc1cc(NS(=O)(=O)c2cnc(-c3ccc(F)cc3)s2)ccc1C(=O)O` [Example 22], the half-inhibitory concentration (IC50) lay within 1000 to 100000 nM.

Turning to `COc1cc(C(=O)O)ccc1NS(=O)(=O)c1cnc(-c2ccc(F)cc2)s1` [Example 23], the IC50 was below 100 nM.

In the case of `O=S(=O)(Nc1ccccc1)c1cnc(-c2ccc(F)cc2)s1` [Example 24], the IC50 was above 100000 nM.

Turning to `O=S(=O)(Nc1ccccc1)c1csc(-c2ccccc2)n1` [Example 25], the IC50 is above 100000 nM.

For the compound `O=C(O)c1ccc(NS(=O)(=O)c2cnc(-c3ccc(F)cc3)s2)cn1` [Example 26], the concentration for half-maximal inhibition (IC50) was 1000 to 100000 nM.

With `O=C(O)Cc1ccc(NS(=O)(=O)c2cnc(-c3ccc(F)cc3)s2)cc1` [Example 27], the half-maximal inhibitory concentration (IC50) is 1000 to 100000 nM.

`O=C(O)c1ccc(NS(=O)(=O)c2cnc(-c3ccc(F)cc3)s2)c(F)c1` [Example 28]: the half-maximal inhibitory concentration (IC50) fell in the range of 100 to 500 nM.

On to `O=C(O)c1ccc(CNS(=O)(=O)c2cnc(-c3ccc(F)cc3)s2)cc1` [Example 29], for which the half-inhibitory concentration (IC50) was in the range of 1000 to 100000 nM.

In the case of `O=C(O)Cc1ccc(CNS(=O)(=O)c2cnc(-c3ccc(F)cc3)s2)cc1` [Example 30], the IC50 was above 100000 nM.

In the case of `CC(C)(C)c1ccc(S(=O)(=O)NC(=O)c2ccc(NS(=O)(=O)c3cnc(-c4ccc(F)cc4)s3)cc2)cc1` [Example 31, N-((4-(tert-butyl)phenyl)sulfonyl)-4-((2-(4-fluorophenyl)thiazole)-5-sulfonamido)benzamide], the IC50 is 1000 to 100000 nM.

Regarding `CN(C)S(=O)(=O)NC(=O)c1ccc(NS(=O)(=O)c2cnc(-c3ccc(F)cc3)s2)cc1` [Example 32], the IC50 was in the range of 1000 to 100000 nM.

With `O=C(O)c1ccc(NS(=O)(=O)c2cnc(-c3ccc(F)cc3)s2)nc1` [Example 33], the IC50 is 1000 to 100000 nM.

For `O=S(=O)(Nc1ccc(-c2nnn[nH]2)cc1)c1cnc(-c2ccc(F)cc2)s1` [Example 34], the IC50 lay within 1000 to 100000 nM.

`Cn1nnnc1-c1ccc(NS(=O)(=O)c2cnc(-c3ccc(F)cc3)s2)cc1` [Example 35]: the half-inhibitory concentration (IC50) was in the range of 1000 to 100000 nM.

Turning to `O=S(=O)(Nc1ccc(CO)cc1)c1cnc(-c2ccc(F)cc2)s1` [Example 36, 2-(4-fluorophenyl)-N-(4-(hydroxymethyl)phenyl)thiazole-5-sulfonamide], the IC50 lay in the range of 1000 to 100000 nM.

`CC(C)Oc1cc(C(=O)O)ccc1NS(=O)(=O)c1cnc(-c2ccc(F)cc2)s1` [Example 37]: the IC50 is 1000 to 100000 nM.

In the case of `CC(C)(C)c1ccc(S(=O)(=O)NC(=O)OCc2ccc(NS(=O)(=O)c3cnc(-c4ccc(F)cc4)s3)cc2)cc1` [Example 38, 4-((2-(4-fluorophenyl)thiazole)-5-sulfonamido)benzyl ((4-(tert-butyl)phenyl)sulfonyl)carbamate], the IC50 fell in the range of 1000 to 100000 nM.

Regarding `COc1cc(C(=O)O)c(F)cc1NS(=O)(=O)c1cnc(-c2ccc(F)cc2)s1` [Example 39], the IC50 is below 100 nM.

In the case of `O=C(O)c1ccc(NS(=O)(=O)c2cnc(-c3ccc(F)cc3)s2)c(O)c1` [Example 40, 4-((2-(4-fluorophenyl)thiazole)-5-sulfonamido)-3-hydroxybenzoic acid], the half-maximal inhibitory concentration (IC50) was below 100 nM.

As for `COc1ccc(NS(=O)(=O)c2cnc(-c3ccc(F)cc3)s2)cc1` [Example 42], the IC50 was 1000 to 100000 nM.

As for `O=C(O)c1ccc(NS(=O)(=O)c2cnc(-c3ccc(F)cc3)s2)c(OC2CC2)c1` [Example 43], the half-inhibitory concentration (IC50) is 1000 to 100000 nM.

In the case of `O=C(O)c1ccc(NS(=O)(=O)c2cnc(-c3ccc(F)cc3)s2)c(C2CC2)c1` [Example 44], the half-maximal inhibitory concentration (IC50) was in the range of 1000 to 100000 nM.

Consider `O=C(O)c1ccc(NS(=O)(=O)c2cnc(-c3ccc(F)cc3)s2)c(C(F)(F)F)c1` [Example 45], for which the IC50 is 1000 to 100000 nM.

For the compound `O=C(O)c1cc(F)c(NS(=O)(=O)c2cnc(-c3ccc(F)cc3)s2)c(F)c1` [Example 46], the IC50 is 100 to 500 nM.

In the case of `O=C(O)c1ccc(NS(=O)(=O)c2cnc(-c3ccc(F)cc3)s2)cc1-c1ccccc1` [Example 47], the half-inhibitory concentration (IC50) is 1000 to 100000 nM.

`O=C(O)c1ccc(NS(=O)(=O)c2cnc(-c3ccc(F)cc3)s2)c(OC(F)(F)F)c1` [Example 48]: the IC50 fell in the range of 1000 to 100000 nM.

For `O=C(O)c1ccc(NS(=O)(=O)c2cnc(-c3ccc(F)cc3)s2)c(OC(F)F)c1` [Example 49], the half-maximal inhibitory concentration (IC50) lay in the range of 1000 to 100000 nM.

Turning to `O=C(O)c1ccc(NS(=O)(=O)c2cnc(-c3ccc(F)cc3)s2)c(F)c1F` [Example 50], the IC50 fell in the range of 100 to 500 nM.

On to `O=C(O)c1ccc(S(=O)(=O)Nc2ccc(-c3nccs3)cc2)cc1` [Example 51], for which the 50% inhibitory concentration (IC50) was in the range of 1000 to 100000 nM.

As for `O=C(O)c1ccc(NS(=O)(=O)c2cscn2)cc1` [Example 52], the IC50 fell in the range of 1000 to 100000 nM.

As to `Cc1nc(S(=O)(=O)Nc2ccc(C(=O)O)cc2)cs1` [Example 53], the IC50 lay within 1000 to 100000 nM.

Consider `Cc1cnn(-c2ccc(S(=O)(=O)Nc3ccc(C(=O)O)cc3)cc2F)c1` [Example 54], for which the IC50 lay in the range of 1000 to 100000 nM.
